Tests used:
[1] = system: histologically diverse tumor cells; conditions: cited from earlier work
[2] = Stability of CCI-779 in solution with chelating agent; format: physicochemical; conditions: citric acid at less than 0.01% w/v
Text: In some embodiments, components with chelating activity are included in the formulations of the invention as the sole “antioxidant component”. Typically, such metal-binding components, when acting as chelating agents are used in the lower end of the range of concentrations for the antioxidant component provided herein. […] Additionally, such chelating agents may be used in combination with other antioxidants as part of the antioxidant component of the invention. For example, an acceptable formulation may contain both citric acid and d,l-α-tocopherol. Optimal concentrations for the selected antioxidant(s) can be readily determined by one of skill in the art, based upon the information provided herein.

Solubility of CCI-779 = format: physicochemical
Description: A primary obstacle towards the formulation of CCI-779 as a parenteral dosage form is the poor aqueous solubility, which is less than 1 μg/ml. The drug is a non-electrolyte and approaches such as pH adjustment and salt formation are not useful for improving the aqueous solubility. […] These include ethanol, propylene glycol, polyethylene glycol and dimethylacetamide. Two problems or limitations exist with respect to the formulation of CCI-779 in these organic solvents. First, chemical instability has been noted in virtually all solvents. The instability can be due to oxidative degradation of CCI-779 or to cleavage of a lactone bond, resulting in the formation of the ring opened seco-CCI-779. Second, formulations of CCI-779 in organic solvents will precipitate upon dilution with aqueous infusion solutions, such as 0.9% Sodium Chloride Injection or 5% Dextrose Injections, or with blood. This is a primary limitation to the use of water miscible organic solvents, also referred to as cosolvents, when used as vehicles for highly water-insoluble compounds.

human tumor xenografts = conditions: nude mice; cited from earlier work

effect of citric acid on stability of CCI-779 [2]: enhanced the stability | solubility in water-miscible organic solvents (Solubility of CCI-779; ethanol, propylene glycol, polyethylene glycol, dimethylacetamide): soluble | solubility in pharmaceutically acceptable vegetable oils (Solubility of CCI-779; vegetable oils): poor solubility | solubility (Solubility of CCI-779; water, read-out: aqueous solubility): < 1 µg/mL
SMILES: CO[C@H]1C[C@@H]2CC[C@@H](C)[C@@](O)(O2)C(=O)C(=O)N2CCCC[C@H]2C(=O)O[C@H]([C@H](C)C[C@@H]2CC[C@@H](OC(=O)C(C)(CO)CO)[C@H](OC)C2)CC(=O)[C@H](C)/C=C(\C)[C@@H](O)[C@@H](OC)C(=O)[C@H](C)C[C@H](C)/C=C/C=C/C=C/1C [CCI-779, rapamycin 42-ester with 3-hydroxy-2-(hydroxymethyl)-2-methylpropionic acid]
growth of tumor cells in vitro [1]: inhibit the growth | activity against human tumor xenografts (human tumor xenografts): has activity

Source: patent US8026276B2, “Parenteral CCI-779 formulations containing cosolvents, an antioxidant, and a surfactant” (Wyeth LLC, priority 2002, dated 2011)
